This data set addresses T1, hOATP1B1 (Homo sapiens, UniProt Q9Y6L6).
T1 sequence (Q9Y6L6 1-691): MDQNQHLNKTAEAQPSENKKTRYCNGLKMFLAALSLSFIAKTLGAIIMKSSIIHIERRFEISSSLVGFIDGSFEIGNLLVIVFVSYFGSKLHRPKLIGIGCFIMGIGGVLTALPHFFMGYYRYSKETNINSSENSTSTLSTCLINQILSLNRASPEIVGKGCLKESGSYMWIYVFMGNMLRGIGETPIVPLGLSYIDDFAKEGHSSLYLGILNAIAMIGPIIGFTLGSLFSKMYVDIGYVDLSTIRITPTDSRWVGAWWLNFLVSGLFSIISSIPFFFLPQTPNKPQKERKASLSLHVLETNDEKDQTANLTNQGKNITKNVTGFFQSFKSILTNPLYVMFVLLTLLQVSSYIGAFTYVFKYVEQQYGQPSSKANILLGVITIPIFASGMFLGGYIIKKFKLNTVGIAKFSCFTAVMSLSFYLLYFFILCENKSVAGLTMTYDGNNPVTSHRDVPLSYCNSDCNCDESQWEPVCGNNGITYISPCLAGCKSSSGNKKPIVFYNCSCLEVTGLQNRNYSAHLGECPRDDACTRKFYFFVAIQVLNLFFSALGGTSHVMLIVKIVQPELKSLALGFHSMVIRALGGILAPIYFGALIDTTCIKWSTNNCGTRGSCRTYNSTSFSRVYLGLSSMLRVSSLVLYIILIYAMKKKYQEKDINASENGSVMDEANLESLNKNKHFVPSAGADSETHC
Description: Substrates uptake assay, HEK293A-OATP1B1 cells (3H-ES). In kind it is in vitro ADME. The note with it: for Transport activity of OATP1B1 (main text: percentage inhibition): negative control = 100%. From the text:
Drug transporters mediate the cellular uptake and efflux of their substrates. Therefore, cell lines overexpressing a drug transporter can be utilized to investigate inhibitors of the transporter by assessing changes in substrate uptake. For each drug transporter, we selected a well-characterized inhibitor as the positive control. Radiolabeled substrates were used to indicate the decrease in transport efficiency when the drug transporters were inhibited by PDQ or the control inhibitors.
The concentrations of the control drugs and the substrates were stated in the assay details. Working solutions of the control inhibitors, the radiolabeled substrates, and each dose of PDQ were prepared at 200 times (200×) more concentrated solutions with DMSO for further dilution.
Transporter-overexpressed cell lines. Human organic anion transporter-overexpressed cell lines MDCKII-OAT1 and S2-OAT3, human organic anion transport polypeptide-overexpressed cell lines HEK293A-OATP1B1 and HEK293A-OATP1B3, human organic cation transporter 2-overexpressed cell line S2-OCT2, and human multi-drug resistance protein MDR1 (or P-gp)-overexpressed cell line MDCKII-MDR1 were gifts from Japan Fuji Biomedical Co., Ltd. (Fuji, Shizuoka Prefecture, Japan). Breast cancer resistance protein-overexpressed vesicles (sf9-BCRP vesicle) were purchased from GenoMembrane Co., Ltd. (Yokohama, Kanagawa, Japan).
Substrates uptake assay. In this assay, we studied the inhibition of PDQ against transporters OAT1, OAT3, OCT2, OATP1B1 and OATP1B3 with MDCKII-OAT1, S2-OAT3, S2-OCT2, HEK293A-OATP1B1and HEK293A-OATP1B3 cells, respectively. The radiolabeled substrates for OAT1, OAT3, OATP1B1, OATP1B3 and OCT2 were […], respectively (Table 5). Probenecid ([…]) was the positive control inhibitor of OAT1 and OAT3, while rifampicin ([…]) served as the control drug of OATP1B1 and OATP1B3. For OCT2, we used […] cimetidine to compare with the inhibitory effect of PDQ. Two times (2×) more concentrated working solutions of the drugs and the substrate were prepared with Dulbecco’s phosphate-buffered saline (DPBS, Gibco, Grand Island, NY, USA.). Then, an equal volume of 2× drug solution and 2× radiolabeled substrate solution were mixed as the working mix. All reagents were pre-warmed to 37 °C.
The cells were digested with 0.05% trypsin/EDTA. The density of the single-cell suspension was adjusted to 2.0 × 10^5 cells/mL for S2 cells and to 1.5 × 10^5 cells/mL for MDCK II and HEK293A cells. The cell suspension was then added to the reservoirs of the 24-well plate for culture until full confluency. The medium in the wells was removed, and the wells were washed with DPBS. Then, the plate was incubated for 10 min with pre-warmed DPBS in the wells. After removing DPBS, […] of working mix was added to each well to initiate the substrate uptake process. The reaction time was 5 min for S2-OCT2 cells, while the other four types of cells were incubated with the reaction mix for 2 min. Cold DPBS was used to terminate the substrate transportation. To each well, […] NaOH ([…]) was added to lyse the cells. Then, […] cell lysate was transferred to the counting vials, and 3 mL scintillation cocktail (Aquasol-2, PerkinElmer, Waltham, MA, USA) was added. […] Each sample was replicated three times (N = 3).
In = [100 × (U − U0)/(Uc − U0)]%(3)
The results were expressed as mean ± standard deviation (SD) and analyzed with GraphPad Prism 8.0 software (CA, USA). The IC50 of PDQ was curve-fitted with the FORECAST function. Statistical significance was calculated using a two-tailed test, and a p value < 0.05 was considered as significant.

Consider `CC(C)(O)[C@@H]1CC[C@@](C)([C@H]2CC[C@]3(C)[C@@H]2[C@H](O)C[C@@H]2[C@@]4(C)CC[C@H](O)C(C)(C)[C@@H]4CC[C@]23C)O1` [PDQ, (20S,24S)-dammar-20,24-epoxy-3β, 12β, 25-triol], for which the “DPM (3H-ES uptake by OATP1B1)” value came out at 15255.0±875.8 DPM (inhibitor 0.1 μM); 16354.0±875.5 DPM (inhibitor 0.3 μM); 14584.0±689.5 DPM (inhibitor 1 μM); 13110.3±561.2 DPM (inhibitor 3 μM); 8070.3±754.4 DPM (inhibitor 10 μM); 5983.3±318.4 DPM (inhibitor 30 μM). Further, the “Transport activity of OATP1B1 (main text: percentage inhibition)” value is, setting by setting: (inhibitor 0.1 μM) 100.9±5.8%; (inhibitor 0.3 μM) 108.1±5.8%; (inhibitor 1 μM) 96.4±4.6%; (inhibitor 3 μM) 86.7±3.7%; (inhibitor 10 μM) 53.4±5.0%.

The values above are taken from paper PMC11173382, “In Vitro Investigations into the Potential Drug Interactions of Pseudoginsenoside DQ Mediated by Cytochrome P450 and Human Drug Transporters” (Molecules, 2024).
